The data set is described as follows: release of bupivacaine from coated samples in PBS, spectrophotometry at 265 nm. Format: physicochemical. Particulars: released from coated samples, 3 mL PBS, 37° C. The protocol: The release of Ag, Ca, and Bupivacaine from the prepared coating was confirmed by ICP analysis and UV spectrometry, respectively. The coated samples were immersed in 3 mL PBS for 24 and 48 hours at 37° C. At each time point, the release of bupivacaine was measured spectrophotometrically (Nanodrop, Thermo) at 265 nm. The Bupivacaine standard was prepared by dissolving appropriate amounts of the drug in PBS. PBS was used as blank.

Experimental findings from patent US9011965B2, “Gradient coating for biomedical applications” (Smith & Nephew, Inc., priority 2008, dated 2015) are described below.

With `CCCCN1CCCCC1C(=O)Nc1c(C)cccc1C` (centres unmarked) [Bupivacaine], the “Bupivacaine Concentration in PBS” value is, setting by setting: (24 hours) 126 ppm; (48 hours) 141 ppm.
